Source: patent publication US20090239839A1, “RECEPTOR ANTAGONIST” (TAKEDA PHARMACEUTICAL COMPANY LIMITED, priority 2003, published 2009)

Columns and labels:
Assay type in all cases: in vivo
Wistar male rat [1] = test: Blood glucose concentration increasing activity of RFRP (intravenous administration to rat); details: RFRP-1 10 nmol/kg intravenous, 5 minutes and 15 minutes after administration, vs physiological saline group
Description: (§1) In the figure, (-∘-) represents a blood glucose concentration of a physiological saline administration group, (-▴-) represents a blood glucose concentration of an RFRP-1 1 nmol/kg administration group, and (-▪-) represents a blood concentration of an RFRP-1 10 nmol/kg administration group.
As RFRP, human RFRP-1 (37 amino acids) consisting of an amino acid sequence of 56th (Ser) to 92nd (Phe) of an amino acid sequence represented by SEQ ID No.: 4. Hereinafter, this peptide is abbreviated as RFRP-1.
In order to study influence of peripheral administration of RFRP-1 on a blood glucose concentration, operation for collecting blood under free moving was performed. A mature Wistar male rat (weight 310 to 350 g at operation) was anesthetized with 50 mg/kg of pentobarbital by intraperitoneal administration. The rat was fixed on an anatomic pad in a supine position, and a left jugular vein was exposed. […]
Overnight after operation, 300 μl of blood was collected using a tuberculin injection syringe having a dose of 1 ml and a 25 gauge injection needle (both Telmo) before administration of RFRP-1. […] A blood glucose concentration was measured using Fuji Drichem 3500 (FUJIFILM).

Wistar male rat [2] = test: Pancreatic glucagon secretion promoting activity of RFRP (blood glucagon and insulin in rat); details: RFRP-1 intravenous; for blood glucagon concentration: vs physiological saline group
Description: as §1, with “blood glucagon” for “blood glucose”, “blood glucagon” for “blood”
as §1, with “blood insulin” for “blood glucose”, “blood insulin” for “blood”, “group. A value indicates mean±standard deviation (mean±SE) (n=4).” for “group.”
In order to study mechanism of blood glucose concentration increasing activity of RFRP-1, influence of RFRP-1 on a blood concentration of glucagon and insulin which are known as a hormone imparting a variation to a blood glucose concentration was studied. A mature Wistar male rat (weight 310 to 350 g at operation) was operated for collecting blood under free moving. Overnight after operation, 300 μl of a blood was collected using a tuberculin injection syringe having a dose of 1 ml and a 25 gauge injection needle (both Telmo) before administration of RFRP-1. In order to prevent blood coagulation, 3 μl of a 300 KIU/ml aprotinin solution containing 3 mg/ml EDTA had been placed into an injection syringe in advance. An Otsuka physiological saline or RFRP-1 dissolved in a physiological saline (80 nmol/mL) was intravenously administered through a tube at 1 mL/Kg. After 1, 3, 5 and 15 minutes from initiation of intravenous administration, each 300 μl of blood was collected from a jugular vein. The collected blood was centrifuged (13,000 rpm, 5 minutes) using a minor amount high speed cooling centrifuge (MR-150, Tommy Seiko), and the supernatant (plasma) was recovered.

Wistar male rat [3] = test: Amnesia promoting activity of RFRP (cued fear conditioning, ventricle administration); details: RFRP-1 3 nmol into a ventricle, on 2 day (48 hours after training), sound stimulation
Description: FIG. 4 indicates a ratio of freezing in a sound clue when RFRP-1 (-□-) and a physiological saline (-∘-) are administered in a ventricle. An ordinate axis indicates freezing (%) of one day and two day after administration, respectively, expressed by mean±standard error.
Since an RFRP nerve is projected on amygdaloid complex, in order to study involvement of RFRP in amygdaloid complex-dependent memory•learning ability, influence under cued fear conditioning due to ventricle administration of RFRP-1 was studied. A mature Wistar male rat (weight 280 to 320 g at operation) was anesthetized with 50 mg/kg of pentobarbital by intraperitoneal administration, and a rat was fixed in a brain localization apparatus. A tooth cutting bar was set lower by 3.3 mm from an interoralline. A cranial bone was exposed, and a hole was opened in a bone using a dental drill in order to embed a guide cannulae AG-12 (internal diameter 0.4 mm, external diameter 0.5 mm, Eicom) in a ventricle. In addition, an anchor screw was embedded in four places at a periphery thereof. A stainless guide cannulae AG-12 was inserted so that its tip was positioned at an upper part of a side ventricle. A localization coordinate was set to be AP: −0.8 mm, L: 1.5 mm, H, 4.5 mm from a Blegma according to Atlas of Paxinos and Watson (1986). […]

RFRP-1: human RFRP-1 (37 amino acids) consisting of an amino acid sequence of 56th (Ser) to 92nd (Phe) of SEQ ID No.: 4 (SLNFEELKDWGPKNVIKMSTPAVNKMPHSFANLPLRF; Human)
blood glucose concentration (Wistar male rat [1]): significant (p<0.05, n=4) activity of increasing a blood glucose concentration
blood insulin concentration (Wistar male rat [2]): a variation due to administration of RFRP-1 was not recognized
blood glucagon concentration (Wistar male rat [2]; 5 minutes after administration): significant (p<0.01) increase was continued
blood glucagon concentration (Wistar male rat [2]; two minutes after administration): significant (p<0.01) increase in a blood glucagon concentration was recognized
rate of freezing (Wistar male rat [3]): 35.5%
